In patent US12329158B2, “Large-scale methods of uniformly coating packaging surfaces with a volatile antimicrobial to preserve food freshness” (AGROFRESH INC., priority 2013, dated 2025):
Values after ≈ are worked out from the molar mass of the structure shown.

Tests used:
Penicillium expansum = assay: In vitro volatile assay (Example 24); format: cell-based; conditions: 72 h, headspace, 100% control, 3 days at 23 C, read-out: Volatile MIC (mg/L) P. expansum
Protocol: (§1) Volatile assay: 12-well (6.5 mL volume per well) microtiter plates are used. A 3-mL volume of half strength PDA is added to each well. […] A Whatman #1 filter disk (Cat. No. 1001-0155) is placed, in duplicate, on the underside of a polyethylene PCR plate sealing film. […] The acetone is permitted to evaporate for 5 minutes. The headspace around the inoculum is then sealed inside the well by the film with the adhering disk containing the fungicide. Plates are inverted, placed over the treated disks, and sealed to prevent any of the chemical from flaking from the disk and falling onto the inoculated agar. […] Contact assay: 6-well (16.5 mL volume per well) microtiter plates are used for an in vitro inhibition assay. […] A 7.5-mL volume of the amended media is added to each well of the microtiter plate. […] The plates are sealed with a clear film and incubated for 3 days at 23° C. After incubation, plates are evaluate for percent growth relative to acetone only control.

Botrytis cinerea [1] = assay: In vitro volatile assay (Example 24); format: cell-based; conditions: 72 h, headspace, 100% control, 3 days at 23 C, read-out: Volatile MIC (mg/L) B. cinerea
Protocol: as §1

Botrytis cinerea [2] = assay: In-clamshell Compound A applied by painting, spraying or sublimation; strawberries (Example 1); format: in vivo; conditions: 5 mg/clamshell
Protocol: An in vivo assay was used to evaluate the ability of Compound A to volatilize from a clamshell chamber and control pathogenic infection when applied by various techniques. Multiple empty 1-lb PET clamshells (ProducePackaging.com, #036QT) were placed inside triplicate air-tight 36 L chamber (Fisher Scientific, Catalogue #08-642-23C) fitted with a bulkhead septum port (Swagelok, SS-401-61, Solon, OH).
Compound A headspace was permitted to equilibrate overnight at 21° C.
Five milligrams of Compound A was dissolved in 1 ml of ethanol prior to being uniformly administered to the interior of the clamshell by painting or spraying, and then dried for 5 minutes. After coating the clamshells with Compound A using various application techniques (i.e., sublimation, spraying, or painting), eight ethanol-washed strawberries were placed in the clamshell with stem end facing downwards. Each strawberry fruit was wounded using a T15 screwdriver tip to a uniform depth of eight mm (8 mm). […] Uninoculated strawberries were removed from their commercial package, and directly transferred into treated clamshells without any washing or inoculation steps.
Treated clamshells lids were closed, and then placed at 1° C. for an initial time period of 5 days. Clamshells were then removed from low temperature, and held for a second time period of 6 days at room temperature where the point of inoculation on the strawberry fruits was assessed for indication of disease incidence reported as a percentage (%). Severity of disease incidence was also reported.

Botrytis cinerea [3] = assay: Gray mold on strawberry, volatile assay (Example 23); format: in vivo
Protocol: Eight strawberries (per repetition, in triplicate) are placed in an industry standard 1-lb PET clamshell with the stem-end facing down.
Compound A is mixed acetone and 250 μL of the mixture is pipetted into a small glass tube. […] After incubation, fruits are evaluated for disease (scale 0 to 4, with ≤1 indicating marketable fruit and 4 indicating ≥50% of fruit surface covered by pathogen) up to 4 days at 21° C.

Epidermophyton floccus = assay: In vitro contact assay (Example 26); format: cell-based; conditions: Epidermophyton, 120 h, 5 days at 28 C, 100% control, read-out: MIC (mg/L) Epidermophyton floccus
Protocol: (§2) Half-strength Potato Dextrose Agar (PDA) is amended with a mixture of one of the test compounds in acetone or methanol to a final concentration of 50, 10, 2, 0.4 or 0.08 mg/L. A 3-mL volume of the amended media is added to each well of the microtiter plate. […] The plates are sealed with a clear film and incubated inverted for 5 days at 28° C.

Trichophyton rubrum = assay: In vitro contact assay (Example 26); format: cell-based; conditions: Trichophyton rubrum, 120 h, 5 days at 28 C, 100% control, read-out: MIC (mg/L) Trichophyton rubrum
Protocol: as §2

[4] = tested on: Trichophyton mentagrophytes; assay: In vitro contact assay (Example 26); format: cell-based; conditions: Trichophyton mentagrophytes, 120 h, 5 days at 28 C, 100% control, read-out: MIC (mg/L) Trichophyton mentagrophytes
Protocol: as §2

M. piriformis = assay: Volatile MIC assay (Example 11); format: cell-based; conditions: Mucor piriformis

OB1OCc2cc(F)ccc21 [Compound A, 5-fluoro-1,3-dihydro-1-hydroxy-2,1-benzoxaborole]
MIC (Penicillium expansum): 2.2 mg/L (≈ 14.5 µM)
MIC (Botrytis cinerea [1]): 0.3 mg/L (≈ 1.97 µM)
Gray Mold Incidence (%) (Botrytis cinerea [2]; Inoculated Fruit, Paint, Day 0): 0.0%
Gray Mold Incidence (%) (Botrytis cinerea [2]; Inoculated Fruit, Paint, Day 1): 0.0%
Gray Mold Incidence (%) (Botrytis cinerea [2]; Inoculated Fruit, Paint, Day 2): 0.0%
Gray Mold Incidence (%) (Botrytis cinerea [2]; Inoculated Fruit, Paint, Day 3): 0.0%
Gray Mold Incidence (%) (Botrytis cinerea [2]; Inoculated Fruit, Paint, Day 4): 0.0%
Gray Mold Incidence (%) (Botrytis cinerea [2]; Inoculated Fruit, Paint, Day 5): 0.0%
Gray Mold Incidence (%) (Botrytis cinerea [2]; Inoculated Fruit, Paint, Day 6): 0.0%
Gray Mold Incidence (%) (Botrytis cinerea [2]; Inoculated Fruit, Spray, Day 0): 0.0%
Gray Mold Incidence (%) (Botrytis cinerea [2]; Inoculated Fruit, Spray, Day 1): 0.0%
Gray Mold Incidence (%) (Botrytis cinerea [2]; Inoculated Fruit, Spray, Day 2): 0.0%
Gray Mold Incidence (%) (Botrytis cinerea [2]; Inoculated Fruit, Spray, Day 3): 0.0%
Gray Mold Incidence (%) (Botrytis cinerea [2]; Inoculated Fruit, Spray, Day 4): 0.0%
Gray Mold Incidence (%) (Botrytis cinerea [2]; Inoculated Fruit, Spray, Day 5): 0.0%
Gray Mold Incidence (%) (Botrytis cinerea [2]; Inoculated Fruit, Spray, Day 6): 0.0%
Gray Mold Incidence (%) (Botrytis cinerea [2]; Inoculated Fruit, Sublimation, Day 0): 0.0%
Gray Mold Incidence (%) (Botrytis cinerea [2]; Inoculated Fruit, Sublimation, Day 1): 0.0%
Gray Mold Incidence (%) (Botrytis cinerea [2]; Inoculated Fruit, Sublimation, Day 2): 0.0%
Gray Mold Incidence (%) (Botrytis cinerea [2]; Inoculated Fruit, Sublimation, Day 3): 0.0%
Gray Mold Incidence (%) (Botrytis cinerea [2]; Inoculated Fruit, Sublimation, Day 4): 0.0%
Gray Mold Incidence (%) (Botrytis cinerea [2]; Inoculated Fruit, Sublimation, Day 5): 0.9%
Gray Mold Incidence (%) (Botrytis cinerea [2]; Inoculated Fruit, Sublimation, Day 6): 0.9%
Gray Mold Incidence (%) (Botrytis cinerea [2]; Uninoculated Fruit, Paint, Day 0): 0.0%
Gray Mold Incidence (%) (Botrytis cinerea [2]; Uninoculated Fruit, Paint, Day 1): 0.3%
Gray Mold Incidence (%) (Botrytis cinerea [2]; Uninoculated Fruit, Paint, Day 2): 3.9%
Gray Mold Incidence (%) (Botrytis cinerea [2]; Uninoculated Fruit, Paint, Day 3): 5.1%
Gray Mold Incidence (%) (Botrytis cinerea [2]; Uninoculated Fruit, Paint, Day 4): 7.4%
Gray Mold Incidence (%) (Botrytis cinerea [2]; Uninoculated Fruit, Paint, Day 5): 17.0%
Gray Mold Incidence (%) (Botrytis cinerea [2]; Uninoculated Fruit, Paint, Day 6): 21.7%
Gray Mold Incidence (%) (Botrytis cinerea [2]; Uninoculated Fruit, Spray, Day 0): 0.0%
Gray Mold Incidence (%) (Botrytis cinerea [2]; Uninoculated Fruit, Spray, Day 1): 0.6%
Gray Mold Incidence (%) (Botrytis cinerea [2]; Uninoculated Fruit, Spray, Day 2): 2.1%
Gray Mold Incidence (%) (Botrytis cinerea [2]; Uninoculated Fruit, Spray, Day 3): 4.8%
Gray Mold Incidence (%) (Botrytis cinerea [2]; Uninoculated Fruit, Spray, Day 4): 6.0%
Gray Mold Incidence (%) (Botrytis cinerea [2]; Uninoculated Fruit, Spray, Day 5): 17.9%
Gray Mold Incidence (%) (Botrytis cinerea [2]; Uninoculated Fruit, Spray, Day 6): 19.9%
Gray Mold Incidence (%) (Botrytis cinerea [2]; Uninoculated Fruit, Sublimation, Day 0): 0.0%
Gray Mold Incidence (%) (Botrytis cinerea [2]; Uninoculated Fruit, Sublimation, Day 1): 0.3%
Gray Mold Incidence (%) (Botrytis cinerea [2]; Uninoculated Fruit, Sublimation, Day 2): 1.5%
Gray Mold Incidence (%) (Botrytis cinerea [2]; Uninoculated Fruit, Sublimation, Day 3): 3.3%
Gray Mold Incidence (%) (Botrytis cinerea [2]; Uninoculated Fruit, Sublimation, Day 4): 5.7%
Gray Mold Incidence (%) (Botrytis cinerea [2]; Uninoculated Fruit, Sublimation, Day 5): 16.7%
Gray Mold Incidence (%) (Botrytis cinerea [2]; Uninoculated Fruit, Sublimation, Day 6): 20.2%
Disease Severity (0 to 4) (Botrytis cinerea [3]; 0.02 mg/L, Day 0): 0.0
Disease Severity (0 to 4) (Botrytis cinerea [3]; 0.02 mg/L, Day 1): 0.0
Disease Severity (0 to 4) (Botrytis cinerea [3]; 0.02 mg/L, Day 2): 0.1
Disease Severity (0 to 4) (Botrytis cinerea [3]; 0.02 mg/L, Day 3): 0.2
Disease Severity (0 to 4) (Botrytis cinerea [3]; 0.02 mg/L, Day 4): 0.7
Disease Severity (0 to 4) (Botrytis cinerea [3]; 0.1 mg/L, Day 0): 0.0
Disease Severity (0 to 4) (Botrytis cinerea [3]; 0.1 mg/L, Day 1): 0.0
Disease Severity (0 to 4) (Botrytis cinerea [3]; 0.1 mg/L, Day 2): 0.0
Disease Severity (0 to 4) (Botrytis cinerea [3]; 0.1 mg/L, Day 3): 0.0
Disease Severity (0 to 4) (Botrytis cinerea [3]; 0.1 mg/L, Day 4): 0.0
Disease Severity (0 to 4) (Botrytis cinerea [3]; 0.5 mg/L, Day 0): 0.0
Disease Severity (0 to 4) (Botrytis cinerea [3]; 0.5 mg/L, Day 1): 0.0
Disease Severity (0 to 4) (Botrytis cinerea [3]; 0.5 mg/L, Day 2): 0.0
Disease Severity (0 to 4) (Botrytis cinerea [3]; 0.5 mg/L, Day 3): 0.0
Disease Severity (0 to 4) (Botrytis cinerea [3]; 0.5 mg/L, Day 4): 0.0
Disease Severity (0 to 4) (Botrytis cinerea [3]; 2.5 mg/L, Day 0): 0.0
Disease Severity (0 to 4) (Botrytis cinerea [3]; 2.5 mg/L, Day 1): 0.0
Disease Severity (0 to 4) (Botrytis cinerea [3]; 2.5 mg/L, Day 2): 0.0
Disease Severity (0 to 4) (Botrytis cinerea [3]; 2.5 mg/L, Day 3): 0.0
Disease Severity (0 to 4) (Botrytis cinerea [3]; 2.5 mg/L, Day 4): 0.0
MIC (Epidermophyton floccus): 2 mg/L (≈ 13.2 µM)
MIC (Trichophyton rubrum): 2 mg/L (≈ 13.2 µM)
MIC [4]: 2 mg/L (≈ 13.2 µM)
MIC (M. piriformis): 1.1 µg/mL (≈ 7.24 µM)
